pIC50: −log10 of the molar value.
Test system: Salmonella typhimurium
Test: Antibacterial activity against salmonella typhimurium infected in gentamicin-treated mouse RAW264.7 macrophages assessed as reduction of bacterial accumulation with macrophage measured after 17.5 hrs of post infection by SAFIRE assay
Format: functional, organism-based, Salmonella enterica subsp. enterica serovar Typhimurium
Conditions: Salmonella enterica, RAW264.7, 17.5 h

Structure (SMILES): OC(COc1ccc(C2C3CC4CC(C3)CC2C4)cc1)CN1CCCCC1 (stereo unspecified)
- pIC50: 6.92
